Where two headings read alike, the source gives them in different places.
Experiments:
Hep3B xenograft model [1] = experiment: combined effect of lenvatinib and anti-hDLK-1 antibody on tumorigenesis inhibitory activity, Hep3B xenograft model; type: in vivo, NOD/ShiJic-scidJcl mice; details: for tumor weight: tumors collected on final day of observation (Day 38)
Text: Using a Hep3B xenograft model, lenvatinib mesylate and anti-hDLK-1 antibody were studied for their combined effect on tumorigenesis inhibitory activity.
(§1) The lenvatinib mesylate used here was commercially available (hereinafter simply referred to as “lenvatinib” in this example). The anti-hDLK-1 antibody used here was “HuBA-1-3D-1-A24G/T73K antibody” found in WO2014/054820 (hereinafter simply referred to as “HuBA-1-3D antibody” in this example), and DNA encoding this antibody protein was constructed in accordance with the procedures shown in WO2014/054820 (see the Example section in the specification), followed by production and preparation of this antibody protein in host cells using the GlymaxX® technology (ProBioGen AG; see https://www.probiogen.de/genetic-glyco-engineering-adcc-glymaxx.html). It should be noted that the HuBA-1-3D-1-A24G/T73K antibody used here has an H chain V region consisting of the amino acid sequence shown in SEQ ID NO: 36 and an L chain V region consisting of the amino acid sequence shown in SEQ ID NO: 46.
1×10^6 Hep3B cells were transplanted subcutaneously into the right flank of female NOD/ShiJic-scidJcl mice at 6 to 7 weeks of age (Day 0). At the stage where the mean tumor volume reached around 100 mm^3 (Day 14), these mice were divided into the following groups: the control group (N=8, 103.5±18.1 mm^3), the group receiving lenvatinib (3 mg/kg body weight) (N=8, 102.8±16.8 mm^3), the group receiving HuBA-1-3D antibody (1 mg/kg body weight) (N=8, 102.7±15.0 mm^3), and the group receiving both lenvatinib (3 mg/kg body weight) and HuBA-1-3D antibody (1 mg/kg body weight) (N=8, 102.5±12.5 mm^3) (hereinafter referred to as the group receiving lenvatinib+HuBA-1-3D antibody). For a period of 12 days starting from Day 14, HuBA-1-3D antibody was administered twice a week (4 times in total; Days 14, 18, 22 and 25), and lenvatinib was administered 5 times a week (administration for 5 days and withdrawal for 2 days) (10 times in total; Days 14, 15, 16, 17, 18, 21, 22, 23, 24 and 25). The tumor volume was measured at a frequency of twice a week, and an animal whose tumor volume reached 1500 mm^3 was excluded from observation.

HepG2 xenograft model [2] = experiment: sensitivity to lenvatinib in HepG2 xenograft therapeutic model; type: in vivo, NOD/SCID mice; details: Day 28; for tumor volume (mean±standard deviation): 5 times a week, N=8; for tumor volume ratio (T/C) relative to the vehicle group: P<0.05
Text: (§2) Two cell lines (Hep3B and HepG2) derived from human hepatocellular carcinoma were compared for their sensitivity to lenvatinib mesylate (commercially available; hereinafter simply referred to as “lenvatinib” in this example) in xenograft therapeutic models.
NOD/SCID mice were transplanted with the cells subcutaneously, and then divided into groups of 8 mice each at the time when the mean tumor volume exceeded 100 mm^3 (Day 10), and administration was started on the same day. The administration was conducted at a dose of 10 μL/g per mouse body weight via the oral route with an oral sonde, 5 times a week (administration for 5 days and withdrawal for 2 days) (14 times in total; Days 10, 11, 12, 13, 14, 17, 18, 19, 20, 21, 24, 25, 26 and 27) until the day before the final day of the test. The tumor volume (mean±standard deviation) at 28 days after transplantation (Day 28; the final day of the test) was 1163.0±205.1 mm^3 in the group receiving vehicle (water for injection) (N=8), 892.5±220.7 mm^3 in the group receiving lenvatinib (3 mg/kg) (N=8), 506.8±215.7 mm^3 in the group receiving lenvatinib (10 mg/kg) (N=8), and 380.0±146.8 mm^3 in the group receiving lenvatinib (30 mg/kg) (N=8). The tumor volume ratio (T/C) relative to the vehicle group on Day 28 was 76.7% (P<0.05), 43.6% (P<0.05) and 32.7% (P<0.05), respectively, in the groups receiving lenvatinib (3, 10 and 30 mg/kg) (FIG. 3B).

Hep3B xenograft model [3] = experiment: sensitivity to lenvatinib in Hep3B xenograft therapeutic model; type: in vivo, NOD/SCID mice; details: Day 29; for tumor volume (mean±standard deviation): 5 times a week, N=8; for tumor volume ratio (T/C) relative to the vehicle group: P<0.05
Text: as §2
In a Hep3B xenograft model, NOD/SCID mice were transplanted with the cells subcutaneously, and then divided into groups of 8 mice each at the time when the mean tumor volume exceeded 100 mm^3 (Day 14), and administration was started on the same day. The administration was conducted at a dose of 10 μL/g per mouse body weight via the oral route with an oral sonde, 5 times a week (administration for 5 days and withdrawal for 2 days) (12 times in total; Days 14, 15, 16, 17, 18, 21, 22, 23, 24, 25, 28 and 29) until the final day of the test. The tumor volume (mean±standard deviation) at 29 days after transplantation (Day 29; the final day of the test) was 1050.3±553.8 mm^3 in the group receiving vehicle (water for injection) (N=8), 400.9±160.9 mm^3 in the group receiving lenvatinib (3 mg/kg) (N=8), 200.2±133.3 mm^3 in the group receiving lenvatinib (10 mg/kg) (N=8), and 136.2±33.8 mm^3 in the group receiving lenvatinib (30 mg/kg) (N=8). The tumor volume ratio (T/C) relative to the vehicle group on Day 29 was 38.2% (P<0.05), 19.1% (P<0.05) and 13.0% (P<0.05), respectively, in the groups receiving lenvatinib (3, 10 and 30 mg/kg) (FIG. 3A).

[4] = tested on: unresectable hepatocellular carcinoma; details: cited from earlier work
HepG2 xenograft model [5] = experiment: combined effect of lenvatinib and anti-hDLK-1 antibody on tumorigenesis inhibitory activity, HepG2 xenograft model; type: in vivo, NOD/ShiJic-scidJcl mice
Text: Using a HepG2 xenograft model, lenvatinib mesylate and anti-hDLK-1 antibody were studied for their combined effect on tumorigenesis inhibitory activity.
as §1
5×10^6 HepG2 cells were transplanted subcutaneously into the right flank of female NOD/ShiJic-scidJcl mice at 7 weeks of age (Day 0). At the stage where the mean tumor volume reached around 100 mm^3 (Day 10), these mice were divided into the following groups: the control group (N=8, 118.4±15 6 mm^3), the group receiving lenvatinib (10 mg/kg body weight) (N=8, 118.8±15.2 mm^3), the group receiving HuBA-1-3D antibody (1 mg/kg body weight) (N=8, 119.8±12.9 mm^3), and the group receiving both lenvatinib (10 mg/kg body weight) and HuBA-1-3D antibody (1 mg/kg body weight) (N=8, 119.7±13.4 mm^3) (hereinafter referred to as the group receiving lenvatinib+HuBA-1-3D antibody). For a period of 12 days starting from Day 10, HuBA-1-3D antibody was administered twice a week (4 times in total; Days 10, 13, 17 and 21), and lenvatinib was administered 5 times a week (administration for 5 days and withdrawal for 2 days) (10 times in total; Days 10, 11, 12, 13, 14, 17, 18, 19, 20 and 21). The tumor volume was measured at a frequency of twice a week, and an animal whose tumor volume reached 1500 mm^3 was excluded from observation.

[6] = Day 25 (final day of administration), lenvatinib 3 mg/kg 5 times a week, HuBA-1-3D antibody 1 mg/kg twice a week, N=8
[7] = Day 31 (6 days after completion of administration), lenvatinib 3 mg/kg, HuBA-1-3D antibody 1 mg/kg
[8] = Day 38 (13 days after completion of administration), lenvatinib 3 mg/kg, HuBA-1-3D antibody 1 mg/kg
[9] = lenvatinib 3 mg/kg, HuBA-1-3D antibody 1 mg/kg
[10] = primary therapeutic agent, unresectable hepatocellular carcinoma, whole treatment group
[11] = Day 21 (final day of administration), lenvatinib 10 mg/kg 5 times a week, HuBA-1-3D antibody 1 mg/kg twice a week, N=8
[12] = Day 31 (10 days after completion of administration), lenvatinib 10 mg/kg, HuBA-1-3D antibody 1 mg/kg, N=8
[13] = Day 34 (13 days after completion of administration), lenvatinib 10 mg/kg, HuBA-1-3D antibody 1 mg/kg

Molecule	tumor volume (Hep3B xenograft model [1]; [6]) [mm^3]	tumor volume (Hep3B xenograft model [1]; [7]) [mm^3]	tumor volume (Hep3B xenograft model [1]; [8]) [mm^3]	tumor weight (Hep3B xenograft model [1]; [9]) [mg]	efficacy [4, 10] [%]	tumor volume (HepG2 xenograft model [5]; [11]) [mm^3]	tumor volume (HepG2 xenograft model [5]; [12]) [mm^3]	tumor volume (HepG2 xenograft model [5]; [13]) [mm^3]	further results
COc1cc2nccc(Oc3ccc(NC(=O)NC4CC4)c(Cl)c3)c2cc1C(N)=O [lenvatinib, 4-[3-chloro-4-(cyclopropylcarbamoylamino)phenoxy]-7-methoxy-quinoline-6-carboxamide]	268.1±175.7	572.2±456.0	1148.5±591.0	841.1 ± 515.8	40.6	326.2±188.7	817.4±583.4	796.2±461.7	tumor volume (mean±standard deviation) (HepG2 xenograft model [2]; lenvatinib 3 mg/kg oral): 892.5±220.7 mm^3; tumor volume ratio (T/C) relative to the vehicle group (HepG2 xenograft model [2]; lenvatinib 3 mg/kg): 76.7%; tumor volume (mean±standard deviation) (HepG2 xenograft model [2]; lenvatinib 10 mg/kg oral): 506.8±215.7 mm^3; tumor volume ratio (T/C) relative to the vehicle group (HepG2 xenograft model [2]; lenvatinib 10 mg/kg): 43.6%; tumor volume (mean±standard deviation) (HepG2 xenograft model [2]; lenvatinib 30 mg/kg oral): 380.0±146.8 mm^3; tumor volume ratio (T/C) relative to the vehicle group (HepG2 xenograft model [2]; lenvatinib 30 mg/kg): 32.7%; tumor volume (mean±standard deviation) (Hep3B xenograft model [3]; lenvatinib 3 mg/kg oral): 400.9±160.9 mm^3; tumor volume ratio (T/C) relative to the vehicle group (Hep3B xenograft model [3]; lenvatinib 3 mg/kg): 38.2%; tumor volume (mean±standard deviation) (Hep3B xenograft model [3]; lenvatinib 10 mg/kg oral): 200.2±133.3 mm^3; tumor volume ratio (T/C) relative to the vehicle group (Hep3B xenograft model [3]; lenvatinib 10 mg/kg): 19.1%; tumor volume (mean±standard deviation) (Hep3B xenograft model [3]; lenvatinib 30 mg/kg oral): 136.2±33.8 mm^3; tumor volume ratio (T/C) relative to the vehicle group (Hep3B xenograft model [3]; lenvatinib 30 mg/kg): 13.0%; efficacy ([4]; Japanese population (of 81 patients) assigned to the lenvatinib group): 46.9%; animals sacrificed whose tumor volume exceeded 1500 mm^3 (HepG2 xenograft model [5]; Day 31, lenvatinib 10 mg/kg): one of the 8 animals
CNC(=O)c1cc(Oc2ccc(NC(=O)Nc3ccc(Cl)c(C(F)(F)F)c3)cc2)ccn1 [sorafenib]	–	–	–	–	12.4	–	–	–	–
HuBA-1-3D antibody: humanized anti-hDLK-1 antibody from WO2014/054820; H chain V region SEQ ID NO: 36, L chain V region SEQ ID NO: 46; GlymaxX produced (antibody, V domains shown, GlymaxX glycoengineered, humanized anti-hDLK-1 antibody from WO2014/054820; GlymaxX produced) VH: QVQLVQSGAEVKKPGASVKVSCKGSGYTFTDYAMHWVRQAPGQGLEWIGVISTYYGNTNYNQKFKGKATMTVDKSTSTAYMELRSLRSDDTAVYYCARGGLREYYYAMDYWGQGTMVTVSS VL: DIVMTQSPDSLAVSLGERATINCKSSQSLLNSSNQKNYLAWYQQKPGQPPKLLVYFASTRESGVPDRFSGSGSGTDFTLTISSLQAEDVAVYYCQQHYSTPPTFGQGTKLEIK	144.6±111.2	92.9±79.3	402.3±364.4	392.3 ± 412.9	–	116.4±42.4	394.0±169.8	584.1±241.9	–
